Assay [1] has as its system 22RV-1, LNCaP, and VCaP cells. The assay is described as follows: AR CTG Assay (Cell Titer-Glo cell viability). Type of assay: cell-based. Particulars: Cell viability in cells at 24-hour timepoint (22RV-1, LNCaP, VCaP; line not stated). The text has this: 22RV-1, LNCaP, and VCaP cells were obtained from ATCC (ATCC, Manassas, VA). 22RV-1 and LNCaP cells were maintained in RPMI 1640 (Invitrogen™, Waltham, MA) supplemented with 10% FBS (AusGeneX, Molendinar, Australia) and 1% penicillin/streptomycin (Invitrogen™, Waltham, MA). VCaP cells were maintained in 1:1 ratio F-12(HAM) Nutrient mixture (AdvanCell Technology, Taichung city, Taiwan) and DMEM (Invitrogen™, Waltham, MA) supplemented with 10% FBS (AusGeneX, Molendinar, Australia) and 1% penicillin/streptomycin (Invitrogen™, Waltham, MA).
Compounds were dissolved in DMSO (10 mM), serially diluted from 10 mM to 1.5 nM, and pre-incubated for 2 hours. Exponentially growing cells were seeded at 8×10^3 cells per well of 384 well plate (Corning, New York #3570). Cells were treated with compound for 24 hours. Following treatment, Cell Titer-Glo® Detection reagent (Promega Corporation, Madison, WA) was added according to manufacturer's instructions, and signal read using BMG CLARIOstar plate reader (BMG Labtech, Ortenburg, Germany). Each data point was performed in duplicate for every experiment. A GI50 value was calculated from linear regression analysis of the plots.
For orientation: Cellular ATP, detected with luciferase, serves as a proxy for viable cell number.

For a further assay, the target named is T1, AR (Androgen Receptor) (Homo sapiens, UniProt P10275).
T1 construct: immunofluorescence degradation readout (antibody D6F11), 48 h
T1 sequence (P10275 1-920): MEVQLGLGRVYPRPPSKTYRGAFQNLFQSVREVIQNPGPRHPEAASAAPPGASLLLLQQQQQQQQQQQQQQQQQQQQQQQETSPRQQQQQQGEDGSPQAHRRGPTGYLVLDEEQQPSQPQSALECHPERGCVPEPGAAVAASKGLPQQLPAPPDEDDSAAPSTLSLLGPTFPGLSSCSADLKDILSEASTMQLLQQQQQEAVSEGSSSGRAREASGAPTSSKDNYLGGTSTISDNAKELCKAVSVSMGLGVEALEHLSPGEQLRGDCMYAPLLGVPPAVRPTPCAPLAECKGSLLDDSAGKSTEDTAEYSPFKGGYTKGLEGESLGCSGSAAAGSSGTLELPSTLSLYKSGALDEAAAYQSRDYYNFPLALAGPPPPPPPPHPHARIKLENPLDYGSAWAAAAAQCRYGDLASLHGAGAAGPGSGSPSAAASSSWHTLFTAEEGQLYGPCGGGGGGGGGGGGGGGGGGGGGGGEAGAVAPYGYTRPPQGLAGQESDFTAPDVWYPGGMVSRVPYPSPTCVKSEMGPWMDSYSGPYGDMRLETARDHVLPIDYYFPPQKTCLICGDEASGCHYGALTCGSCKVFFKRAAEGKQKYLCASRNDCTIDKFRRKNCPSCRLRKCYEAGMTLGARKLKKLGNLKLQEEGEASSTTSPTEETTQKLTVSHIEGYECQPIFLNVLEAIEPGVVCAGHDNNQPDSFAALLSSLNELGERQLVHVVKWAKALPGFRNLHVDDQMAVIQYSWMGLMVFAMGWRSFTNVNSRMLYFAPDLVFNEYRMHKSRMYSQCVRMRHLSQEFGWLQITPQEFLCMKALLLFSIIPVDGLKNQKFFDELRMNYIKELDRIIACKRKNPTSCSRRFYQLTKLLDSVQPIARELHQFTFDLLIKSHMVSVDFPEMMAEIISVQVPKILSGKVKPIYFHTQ
The experiment in a line: AR IFA Assay (androgen receptor degradation in LNCaP and VCaP cells). Format: cell-based. The note with it: AR degradation in cells (LNCaP, VCaP) at 48-hour timepoint. The text has this:
The purpose of the AR Assays were to assess the binding affinity of the dimer to AR and subsequent protein degradation.
LNCaP, and VCaP cells were obtained from ATCC (ATCC, Manassas, VA). LNCaP cells were maintained in RPMI 1640 (Invitrogen™, Waltham, MA) supplemented with 10% FBS (AusGeneX, Molendinar, Australia) and 1% penicillin/streptomycin (Invitrogen™, Waltham, MA). VCaP cells were maintained in 1:1 ratio F-12(HAM) Nutrient mixture (AdvanCell Technology, Taichung city, Taiwan) and DMEM (Invitrogen™, Waltham, MA) supplemented with 10% FBS (AusGeneX, Molendinar, Australia) and 1% penicillin/streptomycin (Invitrogen™, Waltham, MA).
Compounds were dissolved in DMSO (10 mM), serially diluted from 10 mM to 1.5 nM, and pre-incubated for 2 hours. Exponentially growing cells were seeded at 8×10^3 cells per well of 384 well plate (Corning, New York #356663). Cells were treated with compound for 48 hours. Following treatment, cells were fixed with 4% PFA (SolarBio Lifescience, Beijing, China) for 20 minutes, permeabilised in 100% ice-cold methanol (Merck, Darmstadt, Germany) for 10 minutes, and blocked with blocking buffer (LI-COR Biosciences Lincoln, NE) for 90 minutes. Cells were incubated with primary Androgen Receptor (D6F11) XP® Rabbit mAb antibody (CST #5153 Danvers, MA) at 1:1000 dilution overnight in blocking buffer (LI-COR, Lincoln, NE) at 4° C. Cells were washed in DPBS (Thermo Fisher Scientific, Waltham, MA) and incubated with secondary antibody AlexaFluor 488 goat anti rabbit (Invitrogen™ #A-11008 Waltham, MA) 1:1000 dilution, with Hoechst stain (Invitrogen™ Waltham, MA) 1:5000 dilution in blocking buffer (LI-COR Biosciences, Lincoln, NE) for 90 minutes. After final DPBS wash, 200 ul of DPBS was added to the cells, and signal read on Operetta (Revvity, Waltham, MA). Each data point was performed in duplicate for every experiment. A DC50 value was calculated from linear regression analysis of the plots.

Usually IC50 stands for the concentration at which inhibition is half-maximal. The low end stands for higher potency, the high end for lower potency. As a reminder, the DC50 is the midpoint of the concentration-degradation curve.

Some results are limits rather than exact numbers.

`Cc1cc2c(cc1B1O[C@H]3C[C@H]4C[C@H](C4(C)C)[C@@]3(CCOc3ccc(N4C(=S)N(c5ccc(C#N)c(C(F)(F)F)c5)C(=O)C4(C)C)cc3)O1)CN(CCCOc1cccc3c1CN(C1CCC(=O)NC1=O)C3=O)C2=O` (stereo partly drawn) [Example 21, 4-(3-(4-(2-((3aR,4R,6R,7aS)-2-(2-(3-((2-(2,6-dioxopiperidin-3-yl)-1-oxoisoindolin-4-yl)oxy)propyl)-6-methyl-1-oxoisoindolin-5-yl)-5,5-dimethyltetrahydro-4,6-methanobenzo[d][1,3,2]dioxaborol-3a(4H)-yl)ethoxy)phenyl)-4,4-dimethyl-5-oxo-2-thioxoimidazolidin-1-yl)-2-(trifluoromethyl)benzonitrile] returned an IC50 in assay [1] of over 10000 nM. Besides, the DC50 at AR (Androgen Receptor) lay within 100 to 500 nM.
The like results for `Cc1cc(C(=O)N(C)CCCOc2cccc3c2CN(C2CCC(=O)NC2=O)C3=O)ccc1B1O[C@H]2C[C@H]3C[C@H](C3(C)C)[C@@]2(CCCNc2ccc(C(=O)N[C@H]3CC[C@H](Oc4ccc(C#N)c(Cl)c4)CC3)cc2)O1` (mixture of isomers) [Example 23, 4-((3aR,4R,6R,7aS)-3a-(3-((4-((trans-4-(3-chloro-4-cyanophenoxy)cyclohexyl)carbamoyl)phenyl)amino)propyl)-5,5-dimethylhexahydro-4,6-methanobenzo[d][1,3,2]dioxaborol-2-yl)-N-(3-((2-(2,6-dioxopiperidin-3-yl)-1-oxoisoindolin-4-yl)oxy)propyl)-N,3-dimethylbenzamide] were, in that order, over 10000 nM and 100 to 500 nM.
The like results for `Cc1cc([C@@H](C(=O)N2C[C@H](O)C[C@H]2C(=O)NCc2ccc(Cl)cc2B2O[C@H]3C[C@H]4C[C@H](C4(C)C)[C@@]3(CCNc3ccc(C(=O)N[C@H]4CC[C@H](Oc5ccc(C#N)c(Cl)c5)CC4)cc3)O2)C(C)C)on1` (racemic) [Example 22, (2S,4R)—N-(4-chloro-2-((3aR,4R,6R,7aS)-3a-(2-((4-((trans-4-(3-chloro-4-cyanophenoxy)cyclohexyl)carbamoyl)phenyl)amino)ethyl)-5,5-dimethylhexahydro-4,6-methanobenzo[d][1,3,2]dioxaborol-2-yl)benzyl)-4-hydroxy-1-((S)-3-methyl-2-(3-methylisoxazol-5-yl)butanoyl)pyrrolidine-2-carboxamide] were, in that order, over 10000 nM and 100 to 500 nM.
As to `Cc1ccc(C(=O)N(C)CCCOc2cccc3c2CN(C2CCC(=O)NC2=O)C3=O)cc1B1O[C@H]2C[C@H]3C[C@H](C3(C)C)[C@@]2(CCCNc2ccc(C(=O)N[C@H]3CC[C@H](Oc4ccc(C#N)c(Cl)c4)CC3)cc2)O1` (mixture of isomers) [Example 24, 3-((3aR,4R,6R,7aS)-3a-(3-((4-((trans-4-(3-chloro-4-cyanophenoxy)cyclohexyl)carbamoyl)phenyl)amino)propyl)-5,5-dimethylhexahydro-4,6-methanobenzo[d][1,3,2]dioxaborol-2-yl)-N-(3-((2-(2,6-dioxopiperidin-3-yl)-1-oxoisoindolin-4-yl)oxy)propyl)-N,4-dimethylbenzamide], in assay [1], the IC50 was over 10000 nM. The compound further displayed a DC50 on AR (Androgen Receptor) of 100 to 500 nM.

(Values after patent US20260355325A1, “DIMER COMPOUNDS” (KESMALEA THERAPEUTICS LIMITED, priority 2023, published 2026).)
